Laboratory results as given in the supplement of paper PMC10307832.

Key:
Test in all cases: relative viability (nuclei count vs DMSO), 5 days (fraction); higher = more cells survive
Pictilisib + Foretinib = compound: CS(=O)(=O)N1CCN(Cc2cc3nc(-c4cccc5[nH]ncc45)nc(N4CCOCC4)c3s2)CC1 [Pictilisib] + COc1cc2c(Oc3ccc(NC(=O)C4(C(=O)Nc5ccc(F)cc5)CC4)cc3F)ccnc2cc1OCCCN1CCOCC1 [Foretinib] (partner 0.25 µM)
Summary of the method: (§1)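 Relative viability was taken as the ratio of nuclei in treated wells to nuclei in vehicle wells. Lung cancer cell lines in 1536-well plates received compounds by pin tool one day after seeding, either one drug alone or a fixed anchor-drug dose plus five library-drug doses (not always all listed) in √10 steps. Nuclei were counted on 4× images after 5 days of treatment, and values are medians of duplicate plates.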

Pictilisib + Linsitinib = compound: CS(=O)(=O)N1CCN(Cc2cc3nc(-c4cccc5[nH]ncc45)nc(N4CCOCC4)c3s2)CC1 [Pictilisib] + C[C@]1(O)C[C@@H](c2nc(-c3ccc4ccc(-c5ccccc5)nc4c3)c3c(N)nccn32)C1 [Linsitinib] (partner 1 µM)
Summary of the method: as §1

MK-2206 + Pictilisib = compound: NC1(c2ccc(-c3nc4ccn5c(=O)[nH]nc5c4cc3-c3ccccc3)cc2)CCC1 [MK-2206] + CS(=O)(=O)N1CCN(Cc2cc3nc(-c4cccc5[nH]ncc45)nc(N4CCOCC4)c3s2)CC1 [Pictilisib] (partner 1 µM)
Summary of the method: as §1

MK-2206 + Dasatinib = compound: NC1(c2ccc(-c3nc4ccn5c(=O)[nH]nc5c4cc3-c3ccccc3)cc2)CCC1 [MK-2206] + Cc1nc(Nc2ncc(C(=O)Nc3c(C)cccc3Cl)s2)cc(N2CCN(CCO)CC2)n1 [Dasatinib] (partner 0.075 µM)
Summary of the method: as §1

MK-2206 + Phenformin = compound: NC1(c2ccc(-c3nc4ccn5c(=O)[nH]nc5c4cc3-c3ccccc3)cc2)CCC1 [MK-2206] + N=C(N)NC(=N)NCCc1ccccc1 [Phenformin] (partner 250 µM)
Summary of the method: as §1

| Cell Line | relative viability (Pictilisib + Foretinib; first compound 0.02 µM) | relative viability (Pictilisib + Foretinib; first compound 0.06325 µM) | relative viability (Pictilisib + Foretinib; first compound 0.6325 µM) | relative viability (Pictilisib + Foretinib; first compound 2 µM) | relative viability (Pictilisib + Linsitinib; first compound 0.02 µM) | relative viability (Pictilisib + Linsitinib; first compound 0.06325 µM) | relative viability (Pictilisib + Linsitinib; first compound 0.6325 µM) | relative viability (Pictilisib + Linsitinib; first compound 2 µM) | relative viability (MK-2206 + Pictilisib; first compound 0.01 µM) | relative viability (MK-2206 + Pictilisib; first compound 0.03162 µM) | relative viability (MK-2206 + Pictilisib; first compound 0.3162 µM) | relative viability (MK-2206 + Pictilisib; first compound 1 µM) | relative viability (MK-2206 + Dasatinib; first compound 0.01 µM) | relative viability (MK-2206 + Dasatinib; first compound 0.03162 µM) | relative viability (MK-2206 + Dasatinib; first compound 0.3162 µM) | relative viability (MK-2206 + Dasatinib; first compound 1 µM) | relative viability (MK-2206 + Phenformin; first compound 0.01 µM) | relative viability (MK-2206 + Phenformin; first compound 0.03162 µM) | relative viability (MK-2206 + Phenformin; first compound 0.3162 µM) | relative viability (MK-2206 + Phenformin; first compound 1 µM) |
| --- | --- | --- | --- | --- | --- | --- | --- | --- | --- | --- | --- | --- | --- | --- | --- | --- | --- | --- | --- | --- |
| NCI-H596 | 0.603 | 0.735 | 0.454 | 0.283 | 1.02 | 0.853 | 0.643 | 0.337 | 0.446 | 0.386 | 0.324 | 0.345 | 0.669 | 0.662 | 0.577 | 0.505 | 0.738 | 0.956 | 0.651 | 0.481 |
| NCI-H1975 | 0.834 | 0.902 | 0.603 | 0.25 | 0.781 | 0.821 | 0.418 | 0.249 | 0.267 | 0.259 | 0.24 | 0.232 | 0.4 | 0.346 | 0.292 | 0.341 | 0.428 | 0.402 | 0.312 | 0.326 |
| NCI-H1666 | 0.987 | 0.968 | 0.914 | 0.66 | 0.744 | 0.696 | 0.608 | 0.431 | 0.403 | 0.414 | 0.405 | 0.403 | 0.751 | 0.838 | 0.818 | 0.744 | 0.586 | 0.595 | 0.568 | 0.563 |
| PC-3 [JPC-3] | 1.01 | 1.09 | 0.931 | 0.827 | 0.985 | 0.945 | 0.97 | 0.893 | 0.774 | 0.874 | 0.776 | 0.676 | 0.968 | 1.01 | 1.06 | 0.934 | 0.48 | 0.486 | 0.475 | 0.466 |
| NCI-H1755 | 0.901 | 0.883 | 0.778 | 0.58 | 1.02 | 0.975 | 0.906 | 0.53 | 0.47 | 0.48 | 0.36 | 0.4 | 0.443 | 0.424 | 0.406 | 0.35 | 0.68 | 0.632 | 0.551 | 0.587 |
| RERF-LC-KJ | 0.879 | 0.847 | 0.709 | 0.627 | 0.823 | 0.881 | 0.818 | 0.618 | 0.586 | 0.481 | 0.553 | 0.445 | 0.788 | 0.796 | 0.607 | 0.626 | 0.413 | 0.423 | 0.408 | 0.333 |
| NCI-H647 | 1.05 | 0.997 | 1.15 | 0.758 | 1.16 | 1.15 | 1.02 | 0.439 | 0.455 | 0.452 | 0.354 | 0.273 | 0.17 | 0.188 | 0.154 | 0.156 | 0.479 | 0.542 | 0.38 | 0.542 |
| BEN | 0.83 | 0.599 | 0.587 | 0.538 | 0.948 | 0.891 | 0.947 | 0.683 | 0.573 | 0.621 | 0.63 | 0.571 | 0.265 | 0.332 | 0.321 | 0.362 | 0.258 | 0.267 | 0.272 | 0.295 |
| 201T | 1.06 | 1.07 | 0.846 | 0.617 | 0.989 | 1.05 | 0.902 | 0.82 | 0.669 | 0.696 | 0.651 | 0.648 | 0.623 | 0.581 | 0.553 | 0.525 | 0.446 | 0.417 | 0.42 | 0.52 |
| LC-2-ad | 0.959 | 0.948 | 0.662 | 0.491 | 0.848 | 0.801 | 0.326 | 0.36 | 0.452 | 0.63 | 0.502 | 0.352 | 0.581 | 0.579 | 0.505 | 0.2 | 0.544 | 0.589 | 0.532 | 0.365 |
| LCLC-97TM1 | 0.991 | 0.972 | 0.714 | 0.239 | 0.17 | 0.161 | 0.189 | 0.17 | 0.231 | 0.259 | 0.131 | 0.164 | 0.847 | 0.858 | 0.893 | 0.898 | 0.431 | 0.48 | 0.315 | 0.384 |
| NCI-H1915 | 1.07 | 1.12 | 1.1 | 1.02 | 1.07 | 1.06 | 1.12 | 1.07 | 0.866 | 1.1 | 0.88 | 0.947 | 0.348 | 0.329 | 0.348 | 0.271 | 0.351 | 0.384 | 0.379 | 0.367 |
| NCI-H3122 | 0.998 | 0.997 | 0.973 | 0.785 | 0.988 | 0.963 | 0.681 | 0.354 | 0.542 | 0.558 | 0.491 | 0.434 | 0.801 | 0.789 | 0.84 | 0.118 | 0.367 | 0.414 | 0.395 | 0.353 |
| NCI-H1993 | 0.678 | 0.613 | 0.69 | 0.599 | 0.774 | 0.71 | 0.636 | 0.655 | 0.85 | 0.742 | 0.742 | 0.86 | 0.29 | 0.524 | 0.556 | 0.51 | 0.496 | 0.491 | 0.562 | 0.568 |
| NCI-H2405 | 1.01 | 0.965 | 0.847 | 0.562 | 1.05 | 0.96 | 0.7 | 0.5 | 0.418 | 0.421 | 0.361 | 0.282 | 0.208 | 0.241 | 0.182 | 0.231 | 0.392 | 0.402 | 0.36 | 0.321 |
| NCI-H661 | 1.01 | 1.06 | 1.05 | 0.645 | 0.527 | 0.428 | 0.455 | 0.233 | 0.431 | 0.422 | 0.511 | 0.312 | 0.898 | 0.907 | 0.856 | 0.949 | 0.252 | 0.289 | 0.257 | 0.255 |
